Laboratory results from ChEMBL document CHEMBL1137802, “Specific antioxidant activity of caffeoyl derivatives and other natural phenolic compounds: LDL protection against oxidation and decrease in the proinflammatory lysophosphatidylcholine production” (J Nat Prod, 2001).

Key:
Type in all cases: functional, cell-free
[1] = Antioxidant activity against Cu2+-induced lipid peroxidation in human plasma LDL assessed as conjugated diene formation at 5 umol/L preincubated for 1 hr before Cu2+ challenge measured after 270 mins
[2] = Antioxidant activity against Cu2+-induced lipid peroxidation in human plasma LDL assessed as maximal compound concentration at 20 umol/L preincubated for 1 hr before Cu2+ challenge measured after 60 mins relative to compound present at 0 min
[3] = Antioxidant activity against Cu2+-induced lipid peroxidation in human plasma LDL assessed as vitamin E consumption at 5 umol/L preincubated for 1 hr before Cu2+ challenge measured after 270 mins
[4] = Antioxidant activity against Cu2+-induced lipid peroxidation in human plasma LDL assessed as lysophosphatidylcholine formation at 10 umol/L preincubated for 1 hr before Cu2+ challenge measured after 60 mins
[5] = Antioxidant activity against Cu2+-induced lipid peroxidation in human plasma LDL assessed as conjugated diene formation at 10 umol/L preincubated for 1 hr before Cu2+ challenge measured after 60 mins
[6] = Antioxidant activity against Cu2+-induced lipid peroxidation in human plasma LDL assessed as lysophosphatidylcholine formation preincubated for 1 hr before Cu2+ challenge
[7] = Antioxidant activity against Cu2+-induced lipid peroxidation in human plasma LDL assessed as vitamin E consumption at 10 umol/L preincubated for 1 hr before Cu2+ challenge measured after 270 mins
[8] = Antioxidant activity against Cu2+-induced lipid peroxidation in human plasma LDL assessed as conjugated diene formation at 5 umol/L preincubated for 1 hr before Cu2+ challenge measured after 210 mins
[9] = Antioxidant activity against Cu2+-induced lipid peroxidation in human plasma LDL assessed as maximal compound concentration at 20 umol/L preincubated for 1 hr before Cu2+ challenge measured after 210 mins relative to compound present at 0 min
[10] = Antioxidant activity against Cu2+-induced lipid peroxidation in human plasma LDL assessed as maximal compound concentration at 10 umol/L preincubated for 1 hr before Cu2+ challenge measured after 270 mins relative to compound present at 0 min
[11] = Antioxidant activity against Cu2+-induced lipid peroxidation in human plasma LDL assessed as lysophosphatidylcholine formation at 20 umol/L preincubated for 1 hr before Cu2+ challenge measured after 360 mins
[12] = Antioxidant activity against Cu2+-induced lipid peroxidation in human plasma LDL assessed as lysophosphatidylcholine formation at 10 umol/L preincubated for 1 hr before Cu2+ challenge measured after 270 mins
[13] = Antioxidant activity against Cu2+-induced lipid peroxidation in human plasma LDL assessed as conjugated diene formation at 20 umol/L preincubated for 1 hr before Cu2+ challenge measured after 60 mins
[14] = Antioxidant activity against Cu2+-induced lipid peroxidation in human plasma LDL preincubated for 1 hr before Cu2+ challenge
[15] = Antioxidant activity against Cu2+-induced lipid peroxidation in human plasma LDL assessed as vitamin E consumption at 5 umol/L preincubated for 1 hr before Cu2+ challenge measured after 45 mins
[16] = Antioxidant activity against Cu2+-induced lipid peroxidation in human plasma LDL assessed as lysophosphatidylcholine formation at 20 umol/L preincubated for 1 hr before Cu2+ challenge measured after 270 mins
[17] = Antioxidant activity against Cu2+-induced lipid peroxidation in human plasma LDL assessed as maximal compound concentration at 20 umol/L preincubated for 1 hr before Cu2+ challenge measured after 120 mins relative to compound present at 0 min
[18] = Antioxidant activity against Cu2+-induced lipid peroxidation in human plasma LDL assessed as maximal compound concentration at 20 umol/L preincubated for 1 hr before Cu2+ challenge measured after 15 mins relative to compound present at 0 min
[19] = Antioxidant activity against Cu2+-induced lipid peroxidation in human plasma LDL assessed as conjugated diene formation at 10 umol/L preincubated for 1 hr before Cu2+ challenge measured after 270 mins
[20] = Antioxidant activity against Cu2+-induced lipid peroxidation in human plasma LDL assessed as conjugated diene formation at 10 umol/L preincubated for 1 hr before Cu2+ challenge measured after 210 mins
[21] = Antioxidant activity against Cu2+-induced lipid peroxidation in human plasma LDL assessed as vitamin E consumption at 20 umol/L preincubated for 1 hr before Cu2+ challenge measured after 90 mins
[22] = Antioxidant activity against Cu2+-induced lipid peroxidation in human plasma LDL assessed as vitamin E consumption at 20 umol/L preincubated for 1 hr before Cu2+ challenge measured after 120 mins
[23] = Antioxidant activity against Cu2+-induced lipid peroxidation in human plasma LDL assessed as maximal compound concentration at 20 umol/L preincubated for 1 hr before Cu2+ challenge measured after 180 mins relative to compound present at 0 min
[24] = Antioxidant activity against Cu2+-induced lipid peroxidation in human plasma LDL assessed as vitamin E consumption at 20 umol/L preincubated for 1 hr before Cu2+ challenge measured after 270 mins
[25] = Antioxidant activity against Cu2+-induced lipid peroxidation in human plasma LDL assessed as conjugated diene formation at 20 umol/L preincubated for 1 hr before Cu2+ challenge measured after 210 mins
[26] = Antioxidant activity against Cu2+-induced lipid peroxidation in human plasma LDL assessed as conjugated diene formation at 10 umol/L preincubated for 1 hr before Cu2+ challenge measured after 360 mins
[27] = Antioxidant activity against Cu2+-induced lipid peroxidation in human plasma LDL assessed as conjugated diene formation at 10 umol/L preincubated for 1 hr before Cu2+ challenge measured after 150 mins
[28] = Antioxidant activity against Cu2+-induced lipid peroxidation in human plasma LDL assessed as conjugated diene formation at 10 umol/L preincubated for 1 hr before Cu2+ challenge measured after 120 mins
[29] = Antioxidant activity against Cu2+-induced lipid peroxidation in human plasma LDL assessed as maximal compound concentration at 10 umol/L preincubated for 1 hr before Cu2+ challenge measured after 60 mins relative to compound present at 0 min
[30] = Antioxidant activity against Cu2+-induced lipid peroxidation in human plasma LDL assessed as lysophosphatidylcholine formation at 10 umol/L preincubated for 1 hr before Cu2+ challenge measured after 360 mins
[31] = Antioxidant activity against Cu2+-induced lipid peroxidation in human plasma LDL assessed as lysophosphatidylcholine formation at 5 umol/L preincubated for 1 hr before Cu2+ challenge measured after 60 mins
[32] = Antioxidant activity against Cu2+-induced lipid peroxidation in human plasma LDL assessed as conjugated diene formation at 10 umol/L preincubated for 1 hr before Cu2+ challenge measured after 180 mins
[33] = Antioxidant activity against Cu2+-induced lipid peroxidation in human plasma LDL assessed as vitamin E consumption at 20 umol/L preincubated for 1 hr before Cu2+ challenge measured after 210 mins
[34] = Antioxidant activity against Cu2+-induced lipid peroxidation in human plasma LDL assessed as vitamin E consumption at 10 umol/L preincubated for 1 hr before Cu2+ challenge measured after 15 mins

CC(C)(Sc1cc(C(C)(C)C)c(O)c(C(C)(C)C)c1)Sc1cc(C(C)(C)C)c(O)c(C(C)(C)C)c1
Activity [1]: 87.1% | Activity [2]: 51.7% | Activity [3]: 0% | Activity [4]: 0.7% | Activity [5]: 0.6% | Activity [6]: Dose-dependent effect | Activity [7]: 0% | Activity [8]: 80.8% | Activity [9]: 38.3% | Activity [10]: 15.8% | Activity [11]: 1.9% | Activity [12]: 12.9% | Activity [13]: 1.3% | Activity [14]: 5.8 µM/L | Activity [15]: 7.5% | Activity [16]: 1.5% | Activity [17]: 43.2% | Activity [18]: 97% | Activity [19]: 79.9% | Activity [20]: 76.3% | Activity [21]: 0% | Activity [22]: 0% | Activity [23]: 34.4% | Activity [24]: 0% | Activity [25]: 2.6% | Activity [26]: 100% | Activity [27]: 77.2% | Activity [28]: 39.4% | Activity [29]: 34.1% | Activity [30]: 19.2% | Activity [31]: 2.5% | Activity [32]: 77.3% | Activity [33]: 0% | Activity [34]: 51.8%
